Measurements taken from patent publication US8759011B2, “Assay system for determining binding of hydrophobic drugs” (Nederlandse Organisatie voor …, priority 2009, dated 2014).

Test system: human plasma
Assay: plasma binding by partition extraction in dimethylsiloxane-coated 96-well plates
Assay type: in vitro ADME
Conditions: for counts in the polymer coating: one plate
Protocol: 96-wells deepwell plates (lot 1450-401 Perkin-Elmer Lifesciences) were coated with dimethylsiloxane by making the solutions A-H here below in n-hexane. The used dimethylsiloxane (Silicone rubber, GE Silicones, Bergen op Zoom, The Netherlands) has a density of 1.06. Solution H contains 9.54 g dimethylsiloxane in 300 ml n-hexane.
From solutions A-H 100 μl is pipetted in row A-H of each plate. Plates were dried to air for minimally 18 hours (overnight).
To each dilution of plasma (solutions 1-12) an identical amount of the compound to be tested is added (about […]/200 μl solution). […] The solutions are incubated with the compound overnight at 4°.
The plasma solutions 1-12 are added to corresponding columns 1-12 of each plate (200 μl/well). Also 200 μl was added to a separate vessel to be able to correct for (plasma concentration dependent) solubilization. The next day the plates are emptied, washed once with aqua bidest and dried. When sufficient dry in all wells 200 μl counting solution (Optiphase Hisafe 2, Perkin Elmer Lifesciences) is added and the plates are covered. After incubation for minimally 4 hours under gently shaking the radioactivity in each plate is determined using liquid scintillation counting with a MicroBeta device (Perkin Elmer).
Additionally a total count was determined for each well. The total count is the count in the polymer coating+the count in the remaining fluid. The latter was determined by isolating 25 μl from solution in each well prior to emptying, and mixing with Optiphase (Perkin Elmer) followed by liquid scintillation counting.
1. For each datapoint for which the total count was determined, the recovery of total radioactivity was determined by comparing with the counts of the reference spiking solution. Cells with a total recovery <75% were excluded from further data analysis.
2. From all rows containing polymer, the a-specific binding, i.e. the corresponding counts from the row without polymer, was substracted.
3. Curve fitting was applied using the following formula for each cell:
Predicted counts in coating=Tc/((1/ffp+1/fp−1)×(fp×Vw)/Kpdms/Vp)), where
The above formula was fitted using ffp and Kpdms target parameters to be optimized using the least squares regression method over all wells that were included in the data analysis, by calculating the squared difference between the measured counts in the coating and the predicted counts in the coating. Results

C=C1CC[C@H](O)C/C1=C/C=C1\CCC[C@]2(C)[C@@H]([C@H](C)CCCC(C)(C)O)CC[C@@H]12 [25-hydroxy vitamin D3]
Free fraction ± s.d. (fitted free fraction for 100% plasma, ratio between free fraction and total concentration, average of six 96 well plates): 0.000502 ± 0.000060 | counts in the polymer coating (plasma 0 ml/ml, coating 0 nl): 1529 | counts in the polymer coating (plasma 0 ml/ml, coating 4.1 nl): 2095 | counts in the polymer coating (plasma 0 ml/ml, coating 10.2 nl): 3498 | counts in the polymer coating (plasma 0 ml/ml, coating 25.6 nl): 4260 | counts in the polymer coating (plasma 0 ml/ml, coating 64 nl): 5814 | counts in the polymer coating (plasma 0 ml/ml, coating 160 nl): 7292 | counts in the polymer coating (plasma 0 ml/ml, coating 400 nl): 8015 | counts in the polymer coating (plasma 0 ml/ml, coating 1000 nl): 8491 | counts in the polymer coating (plasma 0.0005 ml/ml, coating 0 nl): 639 | counts in the polymer coating (plasma 0.0005 ml/ml, coating 4.1 nl): 1753 | counts in the polymer coating (plasma 0.0005 ml/ml, coating 10.2 nl): 2581 | counts in the polymer coating (plasma 0.0005 ml/ml, coating 25.6 nl): 4428 | counts in the polymer coating (plasma 0.0005 ml/ml, coating 64 nl): 8145 | counts in the polymer coating (plasma 0.0005 ml/ml, coating 160 nl): 12361 | counts in the polymer coating (plasma 0.0005 ml/ml, coating 400 nl): 15727 | counts in the polymer coating (plasma 0.0005 ml/ml, coating 1000 nl): 16960 | counts in the polymer coating (plasma 0.0008 ml/ml, coating 0 nl): 495 | counts in the polymer coating (plasma 0.0008 ml/ml, coating 4.1 nl): 1176 | counts in the polymer coating (plasma 0.0008 ml/ml, coating 10.2 nl): 1649 | counts in the polymer coating (plasma 0.0008 ml/ml, coating 25.6 nl): 3019 | counts in the polymer coating (plasma 0.0008 ml/ml, coating 64 nl): 6029 | counts in the polymer coating (plasma 0.0008 ml/ml, coating 160 nl): 10164 | counts in the polymer coating (plasma 0.0008 ml/ml, coating 400 nl): 13748 | counts in the polymer coating (plasma 0.0008 ml/ml, coating 1000 nl): 15479 | counts in the polymer coating (plasma 0.001 ml/ml, coating 0 nl): 419 | counts in the polymer coating (plasma 0.001 ml/ml, coating 4.1 nl): 972 | counts in the polymer coating (plasma 0.001 ml/ml, coating 10.2 nl): 1545 | counts in the polymer coating (plasma 0.001 ml/ml, coating 25.6 nl): 2658 | counts in the polymer coating (plasma 0.001 ml/ml, coating 64 nl): 5501 | counts in the polymer coating (plasma 0.001 ml/ml, coating 160 nl): 9700 | counts in the polymer coating (plasma 0.001 ml/ml, coating 400 nl): 13183 | counts in the polymer coating (plasma 0.001 ml/ml, coating 1000 nl): 15022 | counts in the polymer coating (plasma 0.003 ml/ml, coating 0 nl): 151 | counts in the polymer coating (plasma 0.003 ml/ml, coating 4.1 nl): 399 | counts in the polymer coating (plasma 0.003 ml/ml, coating 10.2 nl): 603 | counts in the polymer coating (plasma 0.003 ml/ml, coating 25.6 nl): 1258 | counts in the polymer coating (plasma 0.003 ml/ml, coating 64 nl): 2547 | counts in the polymer coating (plasma 0.003 ml/ml, coating 160 nl): 5687 | counts in the polymer coating (plasma 0.003 ml/ml, coating 400 nl): 9284 | counts in the polymer coating (plasma 0.003 ml/ml, coating 1000 nl): 11307 | counts in the polymer coating (plasma 0.005 ml/ml, coating 0 nl): 109 | counts in the polymer coating (plasma 0.005 ml/ml, coating 4.1 nl): 257 | counts in the polymer coating (plasma 0.005 ml/ml, coating 10.2 nl): 428 | counts in the polymer coating (plasma 0.005 ml/ml, coating 25.6 nl): 866 | counts in the polymer coating (plasma 0.005 ml/ml, coating 64 nl): 1719 | counts in the polymer coating (plasma 0.005 ml/ml, coating 160 nl): 3804 | counts in the polymer coating (plasma 0.005 ml/ml, coating 400 nl): 7410 | counts in the polymer coating (plasma 0.005 ml/ml, coating 1000 nl): 10375 | counts in the polymer coating (plasma 0.008 ml/ml, coating 0 nl): 95 | counts in the polymer coating (plasma 0.008 ml/ml, coating 4.1 nl): 212 | counts in the polymer coating (plasma 0.008 ml/ml, coating 10.2 nl): 372 | counts in the polymer coating (plasma 0.008 ml/ml, coating 25.6 nl): 686 | counts in the polymer coating (plasma 0.008 ml/ml, coating 64 nl): 1331 | counts in the polymer coating (plasma 0.008 ml/ml, coating 160 nl): 3035 | counts in the polymer coating (plasma 0.008 ml/ml, coating 400 nl): 5863 | counts in the polymer coating (plasma 0.008 ml/ml, coating 1000 nl): 9044 | counts in the polymer coating (plasma 0.01 ml/ml, coating 0 nl): 90 | counts in the polymer coating (plasma 0.01 ml/ml, coating 4.1 nl): 169 | counts in the polymer coating (plasma 0.01 ml/ml, coating 10.2 nl): 293 | counts in the polymer coating (plasma 0.01 ml/ml, coating 25.6 nl): 523 | counts in the polymer coating (plasma 0.01 ml/ml, coating 64 nl): 1054 | counts in the polymer coating (plasma 0.01 ml/ml, coating 160 nl): 2408 | counts in the polymer coating (plasma 0.01 ml/ml, coating 400 nl): 5093 | counts in the polymer coating (plasma 0.01 ml/ml, coating 1000 nl): 8309 | counts in the polymer coating (plasma 0.02 ml/ml, coating 0 nl): 82 | counts in the polymer coating (plasma 0.02 ml/ml, coating 4.1 nl): 98 | counts in the polymer coating (plasma 0.02 ml/ml, coating 10.2 nl): 182 | counts in the polymer coating (plasma 0.02 ml/ml, coating 25.6 nl): 278 | counts in the polymer coating (plasma 0.02 ml/ml, coating 64 nl): 641 | counts in the polymer coating (plasma 0.02 ml/ml, coating 160 nl): 1394 | counts in the polymer coating (plasma 0.02 ml/ml, coating 400 nl): 3130 | counts in the polymer coating (plasma 0.02 ml/ml, coating 1000 nl): 5582 | counts in the polymer coating (plasma 0.03 ml/ml, coating 0 nl): 62 | counts in the polymer coating (plasma 0.03 ml/ml, coating 4.1 nl): 75 | counts in the polymer coating (plasma 0.03 ml/ml, coating 10.2 nl): 130 | counts in the polymer coating (plasma 0.03 ml/ml, coating 25.6 nl): 237 | counts in the polymer coating (plasma 0.03 ml/ml, coating 64 nl): 409 | counts in the polymer coating (plasma 0.03 ml/ml, coating 160 nl): 988 | counts in the polymer coating (plasma 0.03 ml/ml, coating 400 nl): 2209 | counts in the polymer coating (plasma 0.03 ml/ml, coating 1000 nl): 4228 | counts in the polymer coating (plasma 0.04 ml/ml, coating 0 nl): 55 | counts in the polymer coating (plasma 0.04 ml/ml, coating 4.1 nl): 68 | counts in the polymer coating (plasma 0.04 ml/ml, coating 10.2 nl): 87 | counts in the polymer coating (plasma 0.04 ml/ml, coating 25.6 nl): 153 | counts in the polymer coating (plasma 0.04 ml/ml, coating 64 nl): 342 | counts in the polymer coating (plasma 0.04 ml/ml, coating 160 nl): 722 | counts in the polymer coating (plasma 0.04 ml/ml, coating 400 nl): 1681 | counts in the polymer coating (plasma 0.04 ml/ml, coating 1000 nl): 3295 | counts in the polymer coating (plasma 0.05 ml/ml, coating 0 nl): 47 | counts in the polymer coating (plasma 0.05 ml/ml, coating 4.1 nl): 48 | counts in the polymer coating (plasma 0.05 ml/ml, coating 10.2 nl): 70 | counts in the polymer coating (plasma 0.05 ml/ml, coating 25.6 nl): 153 | counts in the polymer coating (plasma 0.05 ml/ml, coating 64 nl): 296 | counts in the polymer coating (plasma 0.05 ml/ml, coating 160 nl): 588 | counts in the polymer coating (plasma 0.05 ml/ml, coating 400 nl): 1354 | counts in the polymer coating (plasma 0.05 ml/ml, coating 1000 nl): 2501
